Measured values from patent US6723897B2, “Methods for controlling gibberellin levels” (Monsanto Technology, LLC, priority 1998, dated 2004).

Experiments:
[1] = tested on: constitutively GA-deficient transgenic dwarf soybeans (line 719); assay: Summary of first two greenhouse experiments, rescue of GA-deficient soybeans; assay type: in vivo, Glycine max; set-up: key: +: transgenic soybeans are rescued; 0: transgenic soybeans are not rescued
Procedure: (§1) Compounds are first prepared as 25 mg/ml solutions in ethanol as described above, and then diluted into 40 ml of water to prepare the final 0.25 mg/ml treatment solutions. Visual observations on solubilities (milky, clear, etc.) of the treatment solutions are noted. The treatment solutions are divided into two 20 ml portions, each in 50 ml plastic centrifuge tubes. In addition to treating seeds with solutions containing the test compounds, untreated seeds and seeds imbibed in ethanol-water solution (300 μl ethanol in 30 mls of water) are also included in this experiment as controls. In the latter case, 20 seeds are imbibed in 30 mls of solution for six hours.
(§2) Two soybean varieties are selected for testing: constitutively GA-deficient transgenic dwarf soybean line 719 (plasmid pMON29801, constitutive FMV promoter/asCPScc; which is a mixture of 719−2 and 719+17), and A3237, the wild-type parent material. […] After imbibition, seeds are removed from the test tubes, placed on wax paper to dry, and planted in bread pans containing farm soil amended with fertilizer at 20 seeds/pan. Seeds are covered with 0.5″ of vermiculite. Pans are transferred to the greenhouse, which had day/night temperatures of 86/68° F. (30/20° C.), and subirrigated. Illumination is at a light intensity of 300-400 μmolm^−2s^−1 photosynthetic photon flux; 16 hours light/8 hours dark. Subsequent waterings are also through sub-irrigation until the test is terminated three weeks later. Observations included the number of dwarf, intermediate, and tall plants; plant height; uniformity of rescue; and any visual effects.
(§3) All compounds are tested at final concentrations of 0.25, 0.025, and 0.0025 mg/ml except for GA9, which is tested at 0.125, 0.0125, and 0.00125 mg/ml. (The compounds are tested in Experiment I at only one concentration, i.e., 0.25 mg/ml). Test tubes contained […] of ethanol solution per tube. Final volumes are made up to 30 ml with deionized water. After shaking, the treatment solutions (15 ml each) are transferred to each of two 50 ml test tubes. Treatments 1 to 27 are performed on wild-type line A3237; treatments 28 to 54 are performed on constitutively GA-deficient transgenic dwarf soybean line 719 (a mixture of 719−2 and 719+17). Twenty seeds are used in each treatment. Dry seed, ethanol/water-imbibed seed (1% ethanol in water, v/v), and water-imbibed seeds are included as controls. Seeds are imbibed for 6 hours in the test solutions, then planted in bread pans containing Metromix 350 (The Scotts Company, Marysville, Ohio), and covered with 0.5″ Metro-mix. Covered pans are transferred to the greenhouse and subirrigated. Illumination is at a light intensity of 300-400 μmolm^−2s^−1 photosynthetic photon flux; 16 hours light/8 hours dark. Subsequent waterings are also through sub-irrigation until the test is terminated three weeks later. Observations included the number of dwarf, intermediate, and tall plants; plant height; uniformity of rescue; and any visual effects. Digital photographs are also taken.

[2] = tested on: constitutively GA-deficient transgenic dwarf soybean line 719; assay: Experiment I greenhouse test, seed imbibition, GA-deficient soybean; assay type: in vivo, Glycine max; set-up: Observation on Transgenic Line 719: key: −1: treated plants are shorter as compared to untreated plants; 0: treated plants had the same stature as untreated plants; 1: treated plants are slightly elongated as compared to untreated plants; 2: treated plants are moderately elongated as compared to untreated plants; 3: treated plants are highly elongated as compared to untreated plants; 4: treated plants are extremely elongated as compared to untreated plants; conditions: 0.25 mg/ml; for effect in both the constitutive transgenic dwarf and wild-type soybean lines: imbibition, lines 719 and A3237; for Observation on Transgenic Line 719: seeds imbibed 5 hours
From the text: Seeds are covered with 0.5″ of vermiculite.

[3] = tested on: wild-type soybean line A3237; assay: Experiment I greenhouse test, seed imbibition, wild-type soybean; conditions: 0.25 mg/ml; seeds imbibed 5 hours
Procedure: as §1, with “In the latter case, 20 seeds are imbibed in 30 mls of solution for six hours.” left out
After imbibition, seeds are removed from the test tubes, placed on wax paper to dry, and planted in bread pans containing farm soil amended with fertilizer at 20 seeds/pan. Seeds are covered with 0.5″ of vermiculite. Pans are transferred to the greenhouse, which had day/night temperatures of 86/68° F. (30/20° C.), and subirrigated. Illumination is at a light intensity of 300-400 μmolm^−2s^−1 photosynthetic photon flux; 16 hours light/8 hours dark. Subsequent waterings are also through sub-irrigation until the test is terminated three weeks later. Observations included the number of dwarf, intermediate, and tall plants; plant height; uniformity of rescue; and any visual effects.

[4] = Particulate material present in solutions after mixing; assay type: physicochemical; conditions: 0.25 mg/ml compound in water
Procedure: Each of the compounds noted above is weighed to the nearest 0.1 mg in a pre-tarred 1.5-ml polypropylene vial with a screw-top lid. Absolute ethanol is added to the weighed powder to prepare a 25 mg/ml solution. Solutions are thoroughly mixed using a vortex mixer. A stainless steel spatula is used to crush any particulate material remaining after extensive mixing. Vials are left overnight at room temperature, and then remixed to form the concentrated ethanol stock solutions. The presence of undissolved material is noted throughout this procedure.

[5] = tested on: wild-type soybeans (line A3237); assay: Summary of first two greenhouse experiments, elongation of wild-type soybeans
Procedure: as §1, §2, §3

[6] = tested on: constitutively GA-deficient transgenic dwarf soybean line 719; assay: Experiment II second greenhouse test, seed imbibition, GA-deficient soybean; assay type: in vivo, Glycine max; conditions: seeds imbibed 6 hours
Procedure: as §3, with “(The” for “All compounds are tested at final concentrations of 0.25, 0.025, and 0.0025 mg/ml except for GA9, which is tested at 0.125, 0.0125, and 0.00125 mg/ml. (The”, “Treatments 1 to 27 are performed on wild-type line A3237; treatments 28 to 54 are performed on constitutively GA-deficient transgenic dwarf soybean line 719 (a mixture of 719−2 and 719+17).” left out

[7] = tested on: wild-type A3237 soybean; assay: Hilum treatment of soybean seeds, seedling growth and development, wild-type soybean; assay type: in vivo, Glycine max; set-up: key to Emergence timing / Hypocotyl length (6 DAP) / 1st internode length (12 DAP) / 3rd internode length (20 DAP): pos: emergence faster/stem segment longer than controls; 0: emergence timing/stem segment length similar to controls; neg: emergence slower/stem segment shorter than controls; conditions: for Lowest rate where biological activity is observed, 1st internode length (10 DAP) / Lowest rate where biological activity is observed, emergence timing / Lowest rate where biological activity is observed, hypocotyl length (5 DAP): rate response; for 1st internode length (12 DAP) / Emergence timing / Hypocotyl length (6 DAP): single rate per compound 8.3-16.5 μg/seed
Procedure: (§4) In the previous experiments, the effect of various GA compounds on transgenic, GA-deficient and wild-type soybean is evaluated by treating seeds with these compounds via imbibition. Several of these compounds are not completely soluble in water, which limited the interpretation of their utility in rescuing GA-deficient dwarf plants. The purpose of this experiment is to reevaluate selected, previously tested compounds, and additional compounds, by introducing them to the seed via the hilum. As shown by the results presented below, direct application of small quantities of GA compounds dissolved in an organic solvent to the hilum is an effective method of treating soybean seeds. As in the previously described experiments, comparison is made between activity on GA-deficient soybean seedlings and normal (wild-type) seedlings. […] soybean seeds are supplied by Asgrow Seed Company (Des Moines, Iowa). Seed of GA-deficient transgenic soybean line 719 is created by transformation of […] soybean with pMON29801 (FMV/antisense CPScc). Fifth generation seed (R5) is used for these experiments. […] When multiple droplets are applied, each 1 μl droplet is allowed to dry before subsequent droplets are added. Ethanol minus compound is used a treatment control. […] (29° C.) and 75° F. (24° C.), respectively. Emergence timing is measured by counting the number of emerged seedlings at different times after planting. Emergence is defined as the presence of cotyledons raised to soil level or above. […] To assess the ability of a seed treatment to deliver biological activity beyond the first internode, measurements are taken on selected treatments after prolonged growth and development.

[8] = tested on: GA-deficient transgenic soybean line 719 (R5); assay: Hilum treatment of soybean seeds, seedling growth and development, GA-deficient soybean; assay type: in vivo, Glycine max; set-up: key to Emergence timing / Hypocotyl length (6 DAP) / 1st internode length (12 DAP) / 3rd internode length (20 DAP) / 2nd internode length (12 DAP): pos: emergence faster/stem segment longer than controls; 0: emergence timing/stem segment length similar to controls; neg: emergence slower/stem segment shorter than controls; conditions: for Lowest rate where biological activity is observed, 1st internode length (10 DAP) / Lowest rate where biological activity is observed, emergence timing / Lowest rate where biological activity is observed, hypocotyl length (5 DAP) / 1st internode length (12 DAP) / Emergence timing / Hypocotyl length (6 DAP): L719, hilum treatment; for Lowest rate where biological activity is observed, 1st internode length (10 DAP) / Lowest rate where biological activity is observed, emergence timing / Lowest rate where biological activity is observed, hypocotyl length (5 DAP): rate response; for 1st internode length (12 DAP) / Emergence timing / Hypocotyl length (6 DAP): single rate per compound 8.3-16.5 μg/seed; for activity on line 719 in terms of emergence timing and hypocotyl length: single rate, concentration that does not affect normal plant tissue
Procedure: as §4

[9] = 0.25 mg/ml solution (ethanol-water)
[10] = 0.0025 mg/ml solution (ethanol-water)
[11] = 0.025 mg/ml solution (ethanol-water)

Row | SMILES | Rescue of GA-deficient soybeans [1, 9] | effect in both the constitutive transgenic dwarf and wild-type soybean lines [2] | Observation on Transgenic Line 719 [2] | Observation on Wild-Type Line A3237 [3] | Lowest rate where biological activity is observed, 1st internode length (10 DAP) [7] | Lowest rate where biological activity is observed, emergence timing [7] | Lowest rate where biological activity is observed, hypocotyl length (5 DAP) [7] | 1st internode length (12 DAP) [7] | Emergence timing [7] | Hypocotyl length (6 DAP) [7] | Lowest rate where biological activity is observed, 1st internode length (10 DAP) [8] | Lowest rate where biological activity is observed, emergence timing [8] | Lowest rate where biological activity is observed, hypocotyl length (5 DAP) [8] | 1st internode length (12 DAP) [8] | Emergence timing [8] | Hypocotyl length (6 DAP) [8] | activity on line 719 in terms of emergence timing and hypocotyl length ([8]; hilum) | further results
1 | C=C1C[C@]23C[C@H]1CC[C@H]2[C@@]12C=C[C@H](O)[C@@](C)(C(=O)O1)[C@H]2[C@@H]3C(=O)OC [GA7 methyl ester] | 0 | slight to medium elongation | 2 | 1 | – | – | – | – | – | – | – | – | – | – | – | – | – | Particulate material present, 100X Diln w/water [4]: YES
2 | C=C1C[C@]23C[C@@]1(O)CC[C@H]2[C@@]12CCC[C@@](C)(C(=O)O1)[C@H]2[C@@H]3C(=O)O [GA20] | + | excessive elongation | 4 | 4 | – | – | – | – | – | – | – | – | – | – | – | – | – | Elongation of wild-type soybeans [5, 10]: +; Elongation of wild-type soybeans [5, 11]: +; Elongation of wild-type soybeans [5, 9]: +; Rescue of GA-deficient soybeans [1, 10]: +; Rescue of GA-deficient soybeans [1, 11]: +; Significant Visual Observations on Line 719 ([6]; 0.0025 mg/ml): Good rescue of dwarfs; Significant Visual Observations on Line 719 ([6]; 0.025 mg/ml): Good rescue of dwarfs; Significant Visual Observations on Line 719 ([6]; 0.25 mg/ml): Excessive elongation
3 | C=C1C[C@]23C[C@@]1(O)CC[C@H]2[C@]1(C)CCC[C@@](C)(C(=O)O)[C@H]1[C@@H]3C(=O)O [GA53] | – | – | – | – | >10 μg/seed | >10 μg/seed | >10 μg/seed | neg | 0 | 0 | >10 μg/seed | 1 μg/seed | 1 μg/seed | 0 | pos | pos | biologically active | –
4 | C=C1C[C@@]23CC[C@@H]4[C@](C)(CO)CCC[C@@]4(C)[C@@H]2CC[C@@H]1C3 [kaurenol] | – | – | – | – | >100 μg/seed | >100 μg/seed | >100 μg/seed | 0 | 0 | 0 | >100 μg/seed | >100 μg/seed | >100 μg/seed | 0 | pos | pos | biologically active | confirmation of activity previously observed ([8]; rate up to 100 ng/seed, hilum): not confirmed
